Assay results taken from the supplement of paper PMC10307832.

How the values were obtained:
Experiment in all cases: relative viability (nuclei count vs DMSO), 5 days (fraction); higher = more cells survive
Kobe2602 + Foretinib = compound: C1=CC(=CC=C1NC(=S)NNC2=C(C=C(C=C2[N+](=O)[O-])C(F)(F)F)[N+](=O)[O-])F [Kobe2602] + COc1cc2c(Oc3ccc(NC(=O)C4(C(=O)Nc5ccc(F)cc5)CC4)cc3F)ccnc2cc1OCCCN1CCOCC1 [Foretinib] (partner 0.25 µM)
In short: (§1)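 Medians of duplicate plates are given as relative viability. That measure is the nuclei count in treated wells divided by the count in vehicle wells. Counts were taken on 4× images of lung cancer cell lines in 1536-well plates, 5 days after pin-tool dosing the day after seeding with one drug alone or a fixed anchor-drug dose plus five library-drug doses (not always all listed) in √10 steps.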

Cabozantinib + Alpelisib = compound: COc1cc2nccc(Oc3ccc(NC(=O)C4(C(=O)Nc5ccc(F)cc5)CC4)cc3)c2cc1OC [Cabozantinib] + Cc1nc(NC(=O)N2CCC[C@H]2C(N)=O)sc1-c1ccnc(C(C)(C)C(F)(F)F)c1 [Alpelisib] (partner 2 µM)
In short: as §1

[1] = compound: COc1cc2nccc(Oc3ccc(NC(=O)C4(C(=O)Nc5ccc(F)cc5)CC4)cc3)c2cc1OC [Cabozantinib] + CC1(C)CCC(c2ccc(Cl)cc2)=C(CN2CCN(c3ccc(C(=O)NS(=O)(=O)c4ccc(N[C@H](CCN5CCOCC5)CSc5ccccc5)c(S(=O)(=O)C(F)(F)F)c4)cc3)CC2)C1 [Navitoclax] (partner 0.5 µM)
In short: as §1

Zosuquidar + Trametinib = compound: O[C@@H](COc1cccc2ncccc12)CN1CCN([C@@H]2c3ccccc3[C@@H]3[C@H](c4ccccc42)C3(F)F)CC1 [Zosuquidar] + CC(=O)Nc1cccc(-n2c(=O)n(C3CC3)c(=O)c3c(Nc4ccc(I)cc4F)n(C)c(=O)c(C)c32)c1 [Trametinib] (partner 0.02 µM)
In short: as §1

Cell Line	relative viability (Kobe2602 + Foretinib; first compound 0.2 µM)	relative viability (Kobe2602 + Foretinib; first compound 0.6325 µM)	relative viability (Kobe2602 + Foretinib; first compound 2 µM)	relative viability (Kobe2602 + Foretinib; first compound 6.325 µM)	relative viability (Kobe2602 + Foretinib; first compound 20 µM)	relative viability (Cabozantinib + Alpelisib; first compound 0.02 µM)	relative viability (Cabozantinib + Alpelisib; first compound 0.06325 µM)	relative viability (Cabozantinib + Alpelisib; first compound 0.2 µM)	relative viability (Cabozantinib + Alpelisib; first compound 0.6325 µM)	relative viability (Cabozantinib + Alpelisib; first compound 2 µM)	relative viability ([1]; first compound 0.02 µM)	relative viability ([1]; first compound 0.06325 µM)	relative viability ([1]; first compound 0.2 µM)	relative viability ([1]; first compound 0.6325 µM)	relative viability ([1]; first compound 2 µM)	relative viability (Zosuquidar + Trametinib; first compound 0.01 µM)	relative viability (Zosuquidar + Trametinib; first compound 0.03162 µM)	relative viability (Zosuquidar + Trametinib; first compound 0.1 µM)	relative viability (Zosuquidar + Trametinib; first compound 0.3162 µM)	relative viability (Zosuquidar + Trametinib; first compound 1 µM)
201T	1.16	1.17	1.04	0.946	0.93	1.03	1.05	0.981	0.99	0.958	1.2	1.25	1.19	1.2	1.24	0.731	0.742	0.684	0.691	0.719
A549	0.955	0.991	0.908	0.924	0.958	0.877	0.884	0.833	0.809	0.794	1.26	1.24	1.21	1.27	1.08					
A-427	0.983	1.21	1.06	1.1	1.08	1.08	1.12	1.12	1.05	1.01	0.988	1.03	0.998	0.978	0.978	0.795	0.871	0.77	0.82	0.741
ABC-1	0.957	0.922		0.93	1.3	0.865	1.16	1.01	1.01	0.995										
BEN	0.591	0.706	0.738	0.58	0.768	0.992	1.11	1.01	1.06	0.776	0.05	0.0759	0.0381	0.213	0.0541	1.21	1.16	0.885	0.999	0.927
CAL-12T	1.02	1.02	1.09	1.05	1.06	1.23	1.27	1.19	1.16	1.18	1.51	1.2	1.37	1.17	1.46	0.327	0.449	0.262	0.442	0.32
COR-L23	0.902	0.972	0.966	0.96	0.951	0.717	0.883	0.855	0.699	0.59	1.07	1.16	1.03	0.973	0.931	0.573	0.639	0.507	0.811	0.505
COR-L 105	0.986	1.02	0.867	1.1	0.979	0.898	1.08		0.945	0.859	0.789	0.771		0.657	0.743	0.459	0.435	0.408	0.266	0.481
Calu-6	0.858	0.935	0.894	0.86	0.875	1.02	1.09	1.05	1.04	0.906	0.76	0.912	0.801	0.739	0.773					
ChaGo-K-1	0.971	1.03	0.865	0.954	0.838						0.823	1.28	0.972	0.562	1.04	0.893	0.922	0.874	0.943	0.897
EBC-1	0.116	0.108	0.113	0.0943	0.111	0.718	0.931	0.208	0.185	0.22	0.444	0.302	0.152	0.125	0.0913					
EKVX	1.05	0.753	0.7	0.839	1.03	0.788	0.898	0.695	0.886	0.951	0.899	1.1	0.879	1.03	1.07	0.33	0.415		0.359	0.335
EMC-BAC-2	0.938	1.03	0.99	1.04	1.02	0.815	0.804	0.744	0.739	0.737	1.16	1.36	1.2	1.14	1.22	0.92	0.988	0.842	1.02	0.883
EPLC-272H	0.41	0.937	0.667	0.668	0.796	1.02	0.944	0.727	0.949	0.847	1.11	1.11	0.927	1.02	1.12	0.285	0.274	0.278	0.276	0.285
H3255	0.946	0.834	0.784	0.882	0.944	0.675	0.635		0.779	0.644	0.491	0.676		0.687	0.553	0.58	0.581	0.525	0.638	0.632
HARA	0.996	0.795	0.893	0.856	0.892	0.878	1.05	0.639	0.788	0.84	1.17	1.16	1.12	1.19	1.17	0.833	0.938	0.772	1.03	0.541
HCC-15	0.979	1.09	0.974	1.09	0.974	0.881	0.933	0.925	0.905	0.761	0.743	0.739	0.77	0.67	0.645	0.393	0.374	0.345	0.397	0.38
